Results on three compounds are retold here after US8637263B1, “Assay for determination of compounds having anti-emetic activity” (Epiomed Therapeutics, Inc., priority 2010, dated 2014).

SMILES strings stand for the structures. Structures can show the parent of a compound that is named as a salt.

The data set relates to xylazine-induced emesis. The data set can be described thus: Xylazine-induced emesis in cats, with defensive behavior/anxiety scoring. It is filed as in vivo. As to conditions: for anxiety 15 minutes after treatment / protection against xylazine-induced emesis / cats that vomited: FIG. 1, female cats; for protection against xylazine-induced emesis / cats that vomited: observed 30 min; for Defensive Behavior Scale / Mean Defensive Score / % Protection (vomiting) / Mean Latency (to retch/vomit): cats; for % Protection (vomiting) / Mean Latency (to retch/vomit): xylazine 0.66 mg/kg; for anxiety-inducing effect in test subjects / effectiveness in preventing chemically-induced emesis: administered alone, summary statement. As to the method: […], 0.66 mg/kg xylazine was administered subcutaneously, and the test subjects where then observed for 30 minutes.
Cats not susceptible to motion sickness were assigned to the xylazine testing group. Xylazine stimulates receptors on a pathway different from that used by motion sickness and thus served as a test of the generality of anti-emetic effects observed with motion testing.
Prior to the evaluation of anti-emetic compounds, the production of an emetic response by xylazine in felines was confirmed in the laboratory. Cats were injected subcutaneously with either a freshly prepared solution of 0.66 mg/kg of xylazine in 0.9% sodium chloride or 0.9% sodium chloride vehicle, both adjusted to an injection volume of 0.1 ml/kg.
One week following the confirmation of an emetic response by the cats, subject cats were given either vehicle or test compound/composition in 0.9% sodium chloride or vehicle (injection volume of 0.1 ml/kg) subcutaneously, 20 minutes before administration of xylazine. […] Animals were scored using the vomit scale developed by Suri et al., 1979. Additional experiments were separated by at least a 1 week washout period.
A. Vomit Scale Scoring: • 1. Sal I (licking—parasympathetic): 1 pt • 2. Sal II (drool, thin/frothy—early sympathetic): 2 pts • 3. Sal III (stringy saliva, dangles—sympathetic): 4 pts • 4. Defection: 8 pts • 5. Urination: 8 pts • 6. Wretch/vomiting: 16 pts
B. Defensive Behavior Scale: • 1. No defensiveness: normal behavior; • 2. Slight defensiveness: retreating to the rear of the cage when approached and/or growling when being carried; • 3. […] Strong defensiveness: vigorous clawing and biting to prevent being handled. IV. Statistical Methods
Dose response curves were analyzed by Cochran's Q-test to establish significant effects. Paired comparisons were made using McNemar's test. Tests for line parallelism, relative potency and ED50 were based on least squares regression in a program for pharmacological statistics. The data from the nonparametric rating scale was analyzed using Friedman's analysis of variance model (ANOVA).

[1] abbreviates: 0.08 mg/kg SC 15 min before xylazine 0.66 mg/kg SC.

With `CCCN(CCC)C1CCc2cccc(O)c2C1` (racemic) [R/S-(+/−)-DPAT, (±)-8-Hydroxy-2-(dipropylamino)tetralin], under “0.16 mg/kg SC”, the “anxiety 15 minutes after treatment” value is “moderate level of anxiety”, the “Defensive Behavior Scale” value is “Moderate”, the “Mean Defensive Score” value was 2.0 and the “% Protection (vomiting)” value came to 100.00%. Besides, the “protection against xylazine-induced emesis” value (0.16 mg/kg SC 15 min before xylazine 0.66 mg/kg SC) is 100%.

With `CCCN(CCC)[C@@H]1CCc2cccc(O)c2C1` [R-(+)-DPAT, R(+)-8-Hydroxy-2-(dipropylamino)tetralin hydrobromide], the “anxiety-inducing effect in test subjects” value is “moderate to strong” and the “effectiveness in preventing chemically-induced emesis” value is listed as 100%. Also, where the note is “0.08 mg/kg SC”, the “anxiety 15 minutes after treatment” value was “extreme level of anxiety”, the “Defensive Behavior Scale” value is “Strong”, the “Mean Defensive Score” value was determined as 3.0 and the “% Protection (vomiting)” value is 100.00%. Moreover, the cats that vomited entry under setting [1] is “none of the cats vomited”. Besides, under “0.02 mg/kg SC”, the “Defensive Behavior Scale” value is “Moderate”, the “Mean Defensive Score” value was determined as 2.0 and the “% Protection (vomiting)” value was 100.00%. For the same compound, under “0.04 mg/kg SC”, the “Defensive Behavior Scale” value is on record as “Strong”, the “Mean Defensive Score” value is recorded as 3.0 and the “% Protection (vomiting)” value is on record as 100.00%.

With `CCCN(CCC)[C@H]1CCc2cccc(O)c2C1` [S-(−)-DPAT, S(−)-8-Hydroxy-2-(dipropylamino)tetralin hydrobromide], the “anxiety-inducing effect in test subjects” value was “no anxiety or only slight anxiety” and the “effectiveness in preventing chemically-induced emesis” value is recorded as “not fully effective”. In addition, for the setting “0.08 mg/kg SC”, the “anxiety 15 minutes after treatment” value is on record as “did not show any anxiety”, the “Defensive Behavior Scale” value is given as “None”, the “% Protection (vomiting)” value turned out to be 75.00% and the “Mean Latency (to retch/vomit)” value is 1.58 min. Moreover, under setting [1], the cats that vomited was found to be 40% and the “protection against xylazine-induced emesis” value is 60%. In addition, for the setting “0.16 mg/kg SC”, the “Defensive Behavior Scale” value is listed as “None”, the “% Protection (vomiting)” value was determined as 85.71% and the “Mean Latency (to retch/vomit)” value was 0.82 min. Besides, for the setting “0.32 mg/kg SC”, the “Defensive Behavior Scale” value is reported as “Slight”, the “Mean Defensive Score” value is on record as 1.0, the “% Protection (vomiting)” value came to 80.00% and the “Mean Latency (to retch/vomit)” value was 1.00 min.
